From the supplement of paper PMC10307832

Legend:
Assay in all cases: relative viability (nuclei count vs DMSO), 5 days (fraction); higher = more cells survive
Ibrutinib + Luminespib = compound: C=CC(=O)N1CCC[C@@H](n2nc(-c3ccc(Oc4ccccc4)cc3)c3c(N)ncnc32)C1 [Ibrutinib] + CCNC(=O)c1noc(-c2cc(C(C)C)c(O)cc2O)c1-c1ccc(CN2CCOCC2)cc1 [Luminespib] (partner 0.01 µM)
Summary of the method: (§1)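 A single step with final 0.05% Triton X-100, 1% formaldehyde and 1 ug/ml Hoechst fixed the cells and stained nuclei 5 days after treatment. Lung cancer cell lines in 1536-well plates had been treated by pin tool the day after seeding with one drug alone or a fixed anchor-drug dose plus five library-drug doses (not always all listed) in √10 steps, and nuclei were counted on 4× images. Relative viability is the ratio of nuclei in treated wells to nuclei in vehicle wells, taken as the median of duplicate plates.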

PAC-1 + Vorinostat = compound: C=CCc1cccc(/C=N/NC(=O)CN2CCN(Cc3ccccc3)CC2)c1O [PAC-1] + O=C(CCCCCCC(=O)Nc1ccccc1)NO [Vorinostat] (partner 1 µM)
Summary of the method: as §1

Ibrutinib + Dasatinib = compound: C=CC(=O)N1CCC[C@@H](n2nc(-c3ccc(Oc4ccccc4)cc3)c3c(N)ncnc32)C1 [Ibrutinib] + Cc1nc(Nc2ncc(C(=O)Nc3c(C)cccc3Cl)s2)cc(N2CCN(CCO)CC2)n1 [Dasatinib] (partner 0.075 µM)
Summary of the method: as §1

BMX-IN-1 + Dasatinib = compound: C=CC(=O)Nc1cc(-n2c(=O)ccc3cnc4ccc(-c5ccc(NS(C)(=O)=O)cc5)cc4c32)ccc1C [BMX-IN-1] + Cc1nc(Nc2ncc(C(=O)Nc3c(C)cccc3Cl)s2)cc(N2CCN(CCO)CC2)n1 [Dasatinib] (partner 0.075 µM)
Summary of the method: as §1

SK-MES-1
relative viability (Ibrutinib + Luminespib; first compound 0.005 µM): 0.619
relative viability (Ibrutinib + Luminespib; first compound 0.01581 µM): 0.66
relative viability (Ibrutinib + Luminespib; first compound 0.05 µM): 0.77
relative viability (Ibrutinib + Luminespib; first compound 0.1581 µM): 0.842
relative viability (Ibrutinib + Luminespib; first compound 0.5 µM): 0.443
relative viability (PAC-1 + Vorinostat; first compound 0.02 µM): 1.18
relative viability (PAC-1 + Vorinostat; first compound 0.06325 µM): 1.09
relative viability (PAC-1 + Vorinostat; first compound 0.2 µM): 1.02
relative viability (PAC-1 + Vorinostat; first compound 2 µM): 1.17
relative viability (Ibrutinib + Dasatinib; first compound 0.005 µM): 0.281
relative viability (Ibrutinib + Dasatinib; first compound 0.01581 µM): 0.211
relative viability (Ibrutinib + Dasatinib; first compound 0.05 µM): 0.194
relative viability (Ibrutinib + Dasatinib; first compound 0.1581 µM): 0.38
relative viability (Ibrutinib + Dasatinib; first compound 0.5 µM): 0.178
relative viability (BMX-IN-1 + Dasatinib; first compound 0.02 µM): 0.43
relative viability (BMX-IN-1 + Dasatinib; first compound 0.2 µM): 0.317
relative viability (BMX-IN-1 + Dasatinib; first compound 0.6325 µM): 0.337
relative viability (BMX-IN-1 + Dasatinib; first compound 2 µM): 0.34
